Our source for the fold induction and IC50 values is patent publication US20220324835A1 (Nurix Therapeutics, Inc., priority 2018, published 2022).

The structures appear in SMILES notation.

Assay [1] relates to T-cell. The assay can be described thus: CD25 cell surface staining on T-cells co-stimulated with anti-CD3 and anti-CD28 antibody (Biological Example 2). The format is cell-based, human. To be noted: Homo sapiens, T-cell, fold change over baseline, primary human total T-cells, read-out: CD25 staining Anti-CD3/Anti-CD28 stimulation; for fold induction at 0.3 µM: 0.3 μM Cbl-b inhibitor; for fold induction at 1 µM: 1 μM Cbl-b inhibitor; for fold induction at 4 µM: 4 μM Cbl-b inhibitor. Put shortly: (§1)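 No assay protocol given; T-cells stimulated with anti-CD3 alone or anti-CD3 plus anti-CD28, with or without Cbl-b inhibitor. Activation read as IL-2 secretion or CD25 surface staining, expressed as fold over baseline from uninhibited cells […].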

In assay [2] the target is Cbl-b (Homo sapiens, UniProt Q13191). The assay is described as follows: Cbl-b activity assay (Cbl-b inhibition assay), TR-FRET of Cbl-b interaction with UbcH5B-Ub. The format is biochemical. To be noted: assay buffer with 100 mM NaCl, 60 nM Src kinase; read-out: Cbl-b activity IC50. The method, boiled down:
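TR-FRET readout of Cbl-b binding to Bodipy-fluorescein N-terminally labeled Ub conjugated to UbcH5B C85K, measured with compound present. After compound incubation, 60 nM Src kinase with 1 mM ATP and 5 mM MgCl2 (final) was added for 1.5 h, then a further 1 h incubation; asterisked values used 50 mM NaCl buffer and 30 nM Src.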

Assay [3] deals with T-cell. The assay can be described thus: IL-2 secretion from T-cells co-stimulated with anti-CD3 and anti-CD28 antibody (Biological Example 2). Format: cell-based, human. To be noted: Homo sapiens, T-cell, fold change over baseline, primary human total T-cells, read-out: IL-2 secretion Anti-CD3/Anti-CD28 stimulation; for fold induction at 0.3 µM: 0.3 μM Cbl-b inhibitor; for fold induction at 1 µM: 1 μM Cbl-b inhibitor; for fold induction at 4 µM: 4 μM Cbl-b inhibitor. The method, boiled down: as §1

Chain of Cbl-b (Q13191 36-427): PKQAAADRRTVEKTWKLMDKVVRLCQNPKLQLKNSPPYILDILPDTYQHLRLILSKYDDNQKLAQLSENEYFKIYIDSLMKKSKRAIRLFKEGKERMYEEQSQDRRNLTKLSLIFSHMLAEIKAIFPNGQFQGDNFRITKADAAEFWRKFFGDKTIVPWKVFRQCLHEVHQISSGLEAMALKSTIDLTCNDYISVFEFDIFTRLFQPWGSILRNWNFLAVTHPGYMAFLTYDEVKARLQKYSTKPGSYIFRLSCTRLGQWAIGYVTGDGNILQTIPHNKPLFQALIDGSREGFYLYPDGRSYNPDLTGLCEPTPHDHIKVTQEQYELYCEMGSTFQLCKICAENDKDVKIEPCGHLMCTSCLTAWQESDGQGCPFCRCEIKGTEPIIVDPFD

As for `C[C@H](Cc1nncn1C)c1cccc(N2Cc3c(ccnc3C3CCC3)C2=O)c1` [Compound 258, (R)-4-cyclobutyl-2-(3-(1-(4-methyl-4H-1,2,4-triazol-3-yl)propan-2-yl)phenyl)-2,3-dihydropyrrolo[3,4-c]pyridin-1-one], in assay [1], the fold induction at 0.3 µM is below 1, the fold induction at 1 µM was 1.01 to 1.3 and the fold induction at 4 µM was 1.01 to 1.3. In assay [2], the IC50 (as a rule, the point on the concentration scale where inhibition reaches its midpoint) lay within 0.1 to 0.3 µM. In assay [3], the fold induction at 0.3 µM was in the range of 1.01 to 2.5, the fold induction at 1 µM was 2.51 to 5 and the fold induction at 4 µM was 5 to 7.5.
With `C[C@H](Cc1nnc[nH]1)c1cccc(N2Cc3c(cccc3C(F)(F)F)C2=O)c1` [Compound 262, (R)-2-(3-(1-(4H-1,2,4-triazol-3-yl)propan-2-yl)phenyl)-4-(trifluoromethyl)isoindolin-1-one], in assay [1], the fold induction at 0.3 µM was in the range of 1.01 to 1.3, the fold induction at 1 µM fell in the range of 1.31 to 1.5 and the fold induction at 4 µM was in the range of 1.31 to 1.5. In addition, the IC50 in assay [2] lay in the range of 0.301 to 1 µM. Also, in assay [3], the fold induction at 0.3 µM is below 1, the fold induction at 1 µM is below 1 and the fold induction at 4 µM lay in the range of 1.01 to 2.5.
On to `C[C@H](Cc1nncn1C1CC1)c1cccc(N2Cc3c(cccc3C(F)(F)F)C2=O)c1` [Compound 265, (R)-2-(3-(1-(4-cyclopropyl-4H-1,2,4-triazol-3-yl)propan-2-yl)phenyl)-4-(trifluoromethyl)isoindolin-1-one], for which, in assay [1], the fold induction at 0.3 µM lay within 1.01 to 1.3, the fold induction at 1 µM lay within 1.01 to 1.3 and the fold induction at 4 µM is 1.01 to 1.3. Also, the 50% inhibitory concentration (IC50) in assay [2] was 0.301 to 1 µM. Further, in assay [3], the fold induction at 0.3 µM is below 1, the fold induction at 1 µM was 1.01 to 2.5 and the fold induction at 4 µM fell in the range of 1.01 to 2.5.
For the compound `Cc1[nH]cnc1CC(C)c1cccc(N2Cc3c(cccc3C(F)(F)F)C2=O)c1` (centres unmarked) [Compound 272, 2-[3-[1-(5-methyl-1H-imidazol-4-yl)propan-2-yl]phenyl]-4-(trifluoromethyl)isoindolin-1-one], in assay [1], the fold induction at 0.3 µM was below 1, the fold induction at 1 µM was below 1 and the fold induction at 4 µM was 1.01 to 1.3. Also, the concentration for half-maximal inhibition (IC50) in assay [2] lay within 0.301 to 1 µM. For the same compound, in assay [3], the fold induction at 0.3 µM is below 1, the fold induction at 1 µM is below 1 and the fold induction at 4 µM was below 1.
As to `C[C@H](Cc1nncn1C)c1cc(F)cc(N2Cc3c(cccc3C(F)(F)F)C2=O)c1` [Compound 281a, 2-[3-Fluoro-5-[(1R)-1-methyl-2-(4-methyl-1,2,4-triazol-3-yl)ethyl]phenyl]-4-(trifluoromethyl)isoindolin-1-one], in assay [1], the fold induction at 0.3 µM lay within 1.01 to 1.3, the fold induction at 1 µM is 1.01 to 1.3 and the fold induction at 4 µM fell in the range of 1.31 to 1.5. In addition, in assay [2], the concentration for half-maximal inhibition (IC50) fell in the range of 0.1 to 0.3 µM. For the same compound, in assay [3], the fold induction at 0.3 µM was in the range of 1.01 to 2.5, the fold induction at 1 µM lay in the range of 1.01 to 2.5 and the fold induction at 4 µM lay within 2.51 to 5.
`Cn1cnnc1[C@@H]1CC[C@@H]1c1cccc(N2Cc3c(cccc3C(F)(F)F)C2=O)c1` [Compound 283b, 2-(3-((1S,2R)-2-(4-methyl-4H-1,2,4-triazol-3-yl)cyclobutyl)phenyl)-4-(trifluoromethyl)isoindolin-1-one]: in assay [1], the fold induction at 0.3 µM is 1.01 to 1.3, the fold induction at 1 µM is 1.01 to 1.3 and the fold induction at 4 µM lay within 1.01 to 1.3. In assay [2], the IC50 lay in the range of 0.301 to 1 µM. In addition, in assay [3], the fold induction at 0.3 µM is 5 to 7.5, the fold induction at 1 µM was above 7.5 and the fold induction at 4 µM was above 7.5.
For the compound `Cc1ccc(C(=O)Nc2cccc(C(C)C(F)(F)c3nncn3C)c2)nc1C1CC1` (centres unmarked) [Compound 286, 6-cyclopropyl-N-(3-(1,1-difluoro-1-(4-methyl-4H-1,2,4-triazol-3-yl)propan-2-yl)phenyl)-5-methylpicolinamide], in assay [1], the fold induction at 0.3 µM was below 1, the fold induction at 1 µM was below 1 and the fold induction at 4 µM was 1.01 to 1.3. Moreover, in assay [2], the 50% inhibitory concentration (IC50) lay in the range of 0.1 to 0.3 µM. Moreover, in assay [3], the fold induction at 0.3 µM lay in the range of 1.01 to 2.5, the fold induction at 1 µM fell in the range of 1.01 to 2.5 and the fold induction at 4 µM fell in the range of 2.51 to 5.
As to `Cn1cnnc1C(F)(F)[C@](C)(F)c1cccc(N2Cc3c(cccc3C(F)(F)F)C2=O)c1` [Compound 296a, (R)-2-(3-(1,1,2-trifluoro-1-(4-methyl-4H-1,2,4-triazol-3-yl)propan-2-yl)phenyl)-4-(trifluoromethyl)isoindolin-1-one], in assay [1], the fold induction at 0.3 µM fell in the range of 1.01 to 1.3, the fold induction at 1 µM was 1.01 to 1.3 and the fold induction at 4 µM is 1.01 to 1.3. Besides, in assay [2], the concentration for half-maximal inhibition (IC50) is 0.1 to 0.3 µM. Besides, in assay [3], the fold induction at 0.3 µM fell in the range of 1.01 to 2.5, the fold induction at 1 µM was 1.01 to 2.5 and the fold induction at 4 µM was in the range of 2.51 to 5.
Consider `Cn1cnnc1C[C@](C)(F)c1cccc(N2Cc3c(cccc3C(F)(F)F)C2=O)c1` [Compound 298b, (S)-2-(3-(2-fluoro-1-(4-methyl-4H-1,2,4-triazol-3-yl)propan-2-yl)phenyl)-4-(trifluoromethyl)isoindolin-1-one], for which, in assay [1], the fold induction at 0.3 µM was in the range of 1.01 to 1.3, the fold induction at 1 µM was below 1 and the fold induction at 4 µM fell in the range of 1.01 to 1.3. The IC50 in assay [2] fell in the range of 0.1 to 0.3 µM. Further, in assay [3], the fold induction at 0.3 µM lay within 1.01 to 2.5, the fold induction at 1 µM was 1.01 to 2.5 and the fold induction at 4 µM was 1.01 to 2.5.
For `C[C@H](Cc1nncn1C)c1ccnc(NC(=O)c2cccc(C(F)(F)F)n2)c1` [Compound 302, (R)-N-(4-(1-(4-methyl-4H-1,2,4-triazol-3-yl)propan-2-yl)pyridin-2-yl)-6-(trifluoromethyl)picolinamide], in assay [1], the fold induction at 0.3 µM fell in the range of 1.01 to 1.3, the fold induction at 1 µM lay in the range of 1.01 to 1.3 and the fold induction at 4 µM was 1.01 to 1.3. Also, the IC50 in assay [2] lay within 0.301 to 1 µM. Also, in assay [3], the fold induction at 0.3 µM fell in the range of 2.51 to 5, the fold induction at 1 µM was 2.51 to 5 and the fold induction at 4 µM is above 7.5.
For the compound `C[C@H](Cc1nncn1C)c1ccnc(N2Cc3c(cccc3C(F)(F)F)C2=O)c1` [Compound 304b, (R)-2-(4-(1-(4-methyl-4H-1,2,4-triazol-3-yl)propan-2-yl)pyridin-2-yl)-4-(trifluoromethyl)isoindolin-1-one], in assay [1], the fold induction at 0.3 µM fell in the range of 1.01 to 1.3, the fold induction at 1 µM was in the range of 1.01 to 1.3 and the fold induction at 4 µM was 1.31 to 1.5. Besides, the IC50 in assay [2] lay in the range of 0.301 to 1 µM. For the same compound, in assay [3], the fold induction at 0.3 µM is below 1, the fold induction at 1 µM was below 1 and the fold induction at 4 µM lay in the range of 1.01 to 2.5.
In the case of `Cn1cnnc1[C@@H]1C[C@@H]1c1cccc(NC(=O)c2nc3c(C(F)(F)F)cccc3[nH]2)c1` [Compound 332, N-(3-((1S,2R)-2-(4-methyl-4H-1,2,4-triazol-3-yl)cyclopropyl)phenyl)-4-(trifluoromethyl)-1H-benzo[d]imidazole-2-carboxamide], in assay [1], the fold induction at 0.3 µM lay within 1.01 to 1.3, the fold induction at 1 µM fell in the range of 1.01 to 1.3 and the fold induction at 4 µM lay within 1.01 to 1.3. In addition, in assay [2], the IC50 fell in the range of 0.1 to 0.3 µM. Besides, in assay [3], the fold induction at 0.3 µM fell in the range of 1.01 to 2.5, the fold induction at 1 µM was in the range of 1.01 to 2.5 and the fold induction at 4 µM is 2.51 to 5.
For the compound `Cc1cc(C(=O)Nc2cccc([C@@](C)(F)C(F)(F)c3nncn3C)c2)nc(C2CC2)n1` [Compound 344, (R)-2-Cyclopropyl-6-methyl-N-(3-(1,1,2-trifluoro-1-(4-methyl-4H-1,2,4-triazol-3-yl)propan-2-yl)phenyl)pyrimidine-4-carboxamide], in assay [1], the fold induction at 0.3 µM was in the range of 1.01 to 1.3, the fold induction at 1 µM is 1.31 to 1.5 and the fold induction at 4 µM is 1.31 to 1.5. The half-maximal inhibitory concentration (IC50) in assay [2] lay within 0.1 to 0.3 µM. In assay [3], the fold induction at 0.3 µM was 1.01 to 2.5, the fold induction at 1 µM fell in the range of 2.51 to 5 and the fold induction at 4 µM is above 7.5.
Take `C[C@H](Cc1nncn1C)c1cc(NCCO)nc(N2Cc3c(cccc3C(F)(F)F)C2=O)c1` [Compound 357, (R)-2-(6-(2-hydroxyethylamino)-4-(1-(4-methyl-4H-1,2,4-triazol-3-yl)propan-2-yl)pyridin-2-yl)-4-(trifluoromethyl)isoindolin-1-one]: in assay [1], the fold induction at 0.3 µM lay in the range of 1.01 to 1.3, the fold induction at 1 µM lay in the range of 1.01 to 1.3 and the fold induction at 4 µM fell in the range of 1.01 to 1.3. The IC50 in assay [2] fell in the range of 0.1 to 0.3 µM. In assay [3], the fold induction at 0.3 µM lay in the range of 1.01 to 2.5, the fold induction at 1 µM fell in the range of 1.01 to 2.5 and the fold induction at 4 µM was 2.51 to 5.
